Laboratory results taken from patent publication US20250134855A1, “CO[…] AND METHODS OF USING SAME” (LYKOS THERAPEUTICS, INC., priority 2022, published 2025).

Tests used:
[1] = tested on: rats; assay: Daily 28-day repeated dose toxicology study, rats; assay type: in vivo, rat; conditions: 0, 10, 50, or 100 mg/kg/day, daily 28 days
Procedure: (§1) Based on negative in vivo and in vitro genotoxicity studies, the carcinogenic risk of MDMA·HCl is low. No tumors were reported after daily 28-day repeated dose toxicology studies of MDMA in rats (0, 10, 50, or 100 mg/kg/day) or dogs (0, 3, 9, or 15 mg/kg/day).

[2] = biological target: OAT3 (Homo sapiens, UniProt Q8TCC7); assay: Transporter inhibition, OAT3
OAT3, sequence (Q8TCC7 whole entry): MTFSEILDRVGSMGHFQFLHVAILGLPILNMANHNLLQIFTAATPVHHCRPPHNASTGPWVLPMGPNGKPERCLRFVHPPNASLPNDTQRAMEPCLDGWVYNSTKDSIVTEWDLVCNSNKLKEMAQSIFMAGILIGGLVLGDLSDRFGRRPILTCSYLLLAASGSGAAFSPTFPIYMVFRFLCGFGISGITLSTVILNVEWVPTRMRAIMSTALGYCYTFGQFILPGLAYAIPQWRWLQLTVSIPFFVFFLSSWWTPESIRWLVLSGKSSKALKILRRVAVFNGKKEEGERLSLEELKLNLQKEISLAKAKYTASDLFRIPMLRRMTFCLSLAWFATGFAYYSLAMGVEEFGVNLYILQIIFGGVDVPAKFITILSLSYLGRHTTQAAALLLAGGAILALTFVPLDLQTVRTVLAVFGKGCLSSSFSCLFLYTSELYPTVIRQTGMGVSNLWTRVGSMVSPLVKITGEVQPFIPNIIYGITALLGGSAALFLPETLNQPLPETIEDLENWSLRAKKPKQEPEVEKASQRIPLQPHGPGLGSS

[3] = tested on: dogs; assay: Daily 28-day repeated dose toxicology study, dogs; assay type: in vivo, dog; conditions: 0, 3, 9, or 15 mg/kg/day, daily 28 days
Procedure: as §1

[4] = biological target: bile salt export pump (BSEP) (Homo sapiens, UniProt O95342); assay: Transporter inhibition, BSEP
bile salt export pump (BSEP), sequence (O95342 whole entry): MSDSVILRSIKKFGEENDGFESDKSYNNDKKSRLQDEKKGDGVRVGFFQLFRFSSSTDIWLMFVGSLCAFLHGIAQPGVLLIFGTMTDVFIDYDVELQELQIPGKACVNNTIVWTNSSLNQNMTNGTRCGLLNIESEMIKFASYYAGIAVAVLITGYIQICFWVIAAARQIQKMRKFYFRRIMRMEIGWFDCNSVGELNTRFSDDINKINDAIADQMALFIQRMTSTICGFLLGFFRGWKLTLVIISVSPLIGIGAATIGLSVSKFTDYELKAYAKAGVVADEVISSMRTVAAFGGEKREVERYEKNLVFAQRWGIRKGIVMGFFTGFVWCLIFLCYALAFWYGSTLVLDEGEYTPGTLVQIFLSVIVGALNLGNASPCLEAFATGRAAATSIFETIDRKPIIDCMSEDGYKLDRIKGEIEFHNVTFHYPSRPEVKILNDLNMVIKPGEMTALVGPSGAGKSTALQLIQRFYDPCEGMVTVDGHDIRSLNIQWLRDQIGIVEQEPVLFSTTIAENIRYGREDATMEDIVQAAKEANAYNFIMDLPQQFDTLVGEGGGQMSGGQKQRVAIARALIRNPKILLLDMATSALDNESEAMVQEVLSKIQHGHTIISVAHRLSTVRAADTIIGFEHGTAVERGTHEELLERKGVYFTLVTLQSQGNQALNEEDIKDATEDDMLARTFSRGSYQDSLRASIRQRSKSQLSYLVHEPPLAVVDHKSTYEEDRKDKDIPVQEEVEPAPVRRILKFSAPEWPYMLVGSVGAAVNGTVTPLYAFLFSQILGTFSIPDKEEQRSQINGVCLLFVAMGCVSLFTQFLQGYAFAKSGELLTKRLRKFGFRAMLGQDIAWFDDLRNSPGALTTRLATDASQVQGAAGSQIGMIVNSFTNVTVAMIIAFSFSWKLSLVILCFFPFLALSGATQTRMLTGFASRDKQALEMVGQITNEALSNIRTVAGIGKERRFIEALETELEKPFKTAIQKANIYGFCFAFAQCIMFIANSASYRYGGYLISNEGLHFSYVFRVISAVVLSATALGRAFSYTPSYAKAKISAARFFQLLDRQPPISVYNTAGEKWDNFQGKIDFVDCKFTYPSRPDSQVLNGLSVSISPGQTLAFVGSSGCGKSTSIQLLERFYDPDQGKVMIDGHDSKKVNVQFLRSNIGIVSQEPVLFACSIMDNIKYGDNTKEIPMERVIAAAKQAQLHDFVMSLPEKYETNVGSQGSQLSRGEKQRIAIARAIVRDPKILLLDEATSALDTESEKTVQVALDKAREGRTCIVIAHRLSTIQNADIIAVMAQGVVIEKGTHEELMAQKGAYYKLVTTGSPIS

[5] = tested on: participants with PTSD of moderate or greater severity; assay: MAPP2 Phase 3: CAPS-5 total severity score; assay type: in vivo, human; conditions: for Change from Baseline in CAPS-5 Total Severity Score, LS Mean for Treatment Difference / Change from Baseline in CAPS-5 Total Severity Score, LS Mean / CAPS-5 Total Severity Score, Mean / CAPS-5 Total Severity Score, Median / Change from Baseline in CAPS-5 Total Severity Score, Mean / Change from Baseline in CAPS-5 Total Severity Score, Median / Loss of Diagnosis, % / Non-Responder, % / Remission, % / Responder (10-point reduction in CAPS-5 Total Severity Score), %: MAPP2, mITT; for Change from Baseline in CAPS-5 Total Severity Score, LS Mean for Treatment Difference: vs placebo; for Change from Baseline in CAPS-5 Total Severity Score, LS Mean / CAPS-5 Total Severity Score, Mean / CAPS-5 Total Severity Score, Median / Change from Baseline in CAPS-5 Total Severity Score, Mean / Change from Baseline in CAPS-5 Total Severity Score, Median: de jure
Excerpt: FIG. 36 and FIG. 37 show the time course of improvement in Clinician Administered PTSD Scale for DSM-5 (CAPS-5) total severity score versus placebo. Each show a treatment difference between MDMA and placebo after 3 medication sessions with psychological intervention. […] Between the second and third treatment sessions, the difference between the groups appeared to continue to increase in both studies. The primary efficacy measure was change from baseline in the CAPS-5 total severity score at 18 weeks, which was evaluated 2 months after the final dosing session. The CAPS-5 is a 30-item, clinician-rated scale used to assess severity of PTSD symptoms and diagnostic status according to DSM-5 criteria, as described herein. Scores on the CAPS 5 range from 0 to 80, with higher scores indicating more severe PTSD symptoms. In both studies, a secondary efficacy measure was change from baseline in Sheehan Disability Scale (SDS) mean item scores at 18 weeks. The modified SDS is a 3-item, clinician-rated scale measuring the degree of functional impairment in work, family, and social life. Scores on the SDS mean items range from 0 to 10, with higher scores indicating more functional impairment. In these studies, the efficacy assessments were administered by blinded independent raters 18 to 30 days after medication sessions 1 and 2.
MAPP2 was a Phase 3 randomized, placebo-controlled, 2-arm, double-blind, multi-site study conducted to investigate the efficacy and safety of MDMA-AT in participants with PTSD of moderate or greater severity. This study included 3 experimental sessions of therapy combined with either MDMA or placebo. During Experimental Session 1, participants received a split dose of 120 mg (80 mg+40 mg). Participants received an escalated split dose of 180 mg during Experimental Sessions 2 and 3 unless there were tolerability issues or the participant declined.
The primary outcome measure, the CAPS-5, evaluated changes in PTSD symptom severity and the secondary outcome measure, the SDS, evaluated changes in functional impairment. Both measures were assessed by a blinded centralized language-specific IR pool.
A de jure estimand of treatment efficacy was used to estimate the causal effect of MDMA-AT on PTSD symptom severity as measured by the change from Baseline to Visit 19 in CAPS-5 total severity scores in the mITT analysis set. […] Differences in treatment effect among demographic, dissociative sub-type, and overnight stay subgroups were not observed.

[6] = biological target: OCT2 (Homo sapiens, UniProt O15244); assay: Transporter inhibition, OCT2; conditions: at supratherapeutic concentrations
OCT2, sequence (O15244 whole entry): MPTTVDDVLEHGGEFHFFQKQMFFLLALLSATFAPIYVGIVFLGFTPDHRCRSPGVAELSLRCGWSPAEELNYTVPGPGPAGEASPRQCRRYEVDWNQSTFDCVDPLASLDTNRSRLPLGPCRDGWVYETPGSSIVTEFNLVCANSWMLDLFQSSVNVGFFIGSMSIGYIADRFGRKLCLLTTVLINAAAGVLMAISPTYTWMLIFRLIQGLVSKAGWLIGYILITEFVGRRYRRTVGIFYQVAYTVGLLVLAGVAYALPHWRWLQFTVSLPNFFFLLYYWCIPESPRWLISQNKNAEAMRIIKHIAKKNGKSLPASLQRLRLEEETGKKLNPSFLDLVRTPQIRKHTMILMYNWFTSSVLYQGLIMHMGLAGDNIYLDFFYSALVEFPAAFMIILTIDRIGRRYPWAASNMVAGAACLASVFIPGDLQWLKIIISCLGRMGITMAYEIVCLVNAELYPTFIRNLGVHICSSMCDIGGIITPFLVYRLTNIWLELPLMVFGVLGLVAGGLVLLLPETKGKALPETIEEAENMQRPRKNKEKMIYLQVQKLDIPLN

[7] = biological target: organic anion transporter (OAT1) (Homo sapiens, UniProt Q4U2R8); assay: Transporter inhibition, OAT1
organic anion transporter (OAT1), sequence (Q4U2R8 whole entry): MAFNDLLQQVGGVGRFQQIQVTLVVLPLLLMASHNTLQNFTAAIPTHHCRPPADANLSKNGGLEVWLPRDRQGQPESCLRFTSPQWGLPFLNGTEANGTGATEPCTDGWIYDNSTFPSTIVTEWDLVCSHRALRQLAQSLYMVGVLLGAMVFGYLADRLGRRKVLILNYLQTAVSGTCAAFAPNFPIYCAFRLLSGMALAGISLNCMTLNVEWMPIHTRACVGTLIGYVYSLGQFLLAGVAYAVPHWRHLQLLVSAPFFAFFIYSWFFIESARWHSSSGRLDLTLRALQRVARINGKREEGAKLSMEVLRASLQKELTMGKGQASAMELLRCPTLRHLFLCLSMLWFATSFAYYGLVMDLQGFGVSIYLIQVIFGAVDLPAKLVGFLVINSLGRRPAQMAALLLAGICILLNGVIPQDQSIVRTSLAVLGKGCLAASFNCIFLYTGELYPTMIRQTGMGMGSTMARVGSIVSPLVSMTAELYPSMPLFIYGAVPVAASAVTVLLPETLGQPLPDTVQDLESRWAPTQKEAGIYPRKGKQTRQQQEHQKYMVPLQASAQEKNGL

[8] = Baseline to Primary Outcome T4 (Visit 19)
[9] = Primary Outcome CAPS-5 T4 (Visit 19)

## CNC(C)Cc1ccc2c(c1)OCO2 (stereo not shown) [MDMA, 3,4-methylenedioxymethamphetamine]
[1]
  tumors: No tumors
[2]
  inhibition of OAT3: not an inhibitor
[3]
  tumors: No tumors
[4]
  inhibition of BSEP: not an inhibitor
[5]; FIG. 36 and FIG. 37, both studies
  onset of treatment efficacy (CAPS-5 versus placebo): after the second session
[5]; MMRM, T2 (Visit 8)
  Change from Baseline in CAPS-5 Total Severity Score, LS Mean for Treatment Difference: −4.14
[5]; MMRM, T3 (Visit 13)
  Change from Baseline in CAPS-5 Total Severity Score, LS Mean for Treatment Difference: −7.98
[5]; MMRM, T4 (Visit 19)
  Change from Baseline in CAPS-5 Total Severity Score, LS Mean for Treatment Difference: −8.91
[5]; MMRM, Baseline to Primary Outcome T4 (Visit 19)
  Change from Baseline in CAPS-5 Total Severity Score, LS Mean: −23.69
[5]; MMRM, Baseline to T2 (Visit 8)
  Change from Baseline in CAPS-5 Total Severity Score, LS Mean: −11.36
[5]; MMRM, Baseline to T3 (Visit 13)
  Change from Baseline in CAPS-5 Total Severity Score, LS Mean: −18.58
[5]; Baseline CAPS-5 T1 (Visit 3)
  CAPS-5 Total Severity Score, Mean: 39.4
  CAPS-5 Total Severity Score, Median: 39.0
[5]; [8]
  Change from Baseline in CAPS-5 Total Severity Score, Mean: −23.5
  Change from Baseline in CAPS-5 Total Severity Score, Median: −25.0
[5]; Baseline to T2 (Visit 8)
  Change from Baseline in CAPS-5 Total Severity Score, Mean: −11.3
  Change from Baseline in CAPS-5 Total Severity Score, Median: −12.0
[5]; Baseline to T3 (Visit 13)
  Change from Baseline in CAPS-5 Total Severity Score, Mean: −18.5
  Change from Baseline in CAPS-5 Total Severity Score, Median: −20.0
[5]; CAPS-5 T2 (Visit 8)
  CAPS-5 Total Severity Score, Mean: 28.1
  CAPS-5 Total Severity Score, Median: 30.0
  Loss of Diagnosis, %: (39.6) %
  Non-Responder, %: (47.2) %
  Remission, %: (9.4) %
  Responder (10-point reduction in CAPS-5 Total Severity Score), %: (52.8) %
[5]; CAPS-5 T3 (Visit 13)
  CAPS-5 Total Severity Score, Mean: 20.9
  CAPS-5 Total Severity Score, Median: 19.0
  Loss of Diagnosis, %: (60.4) %
  Non-Responder, %: (22.6) %
  Remission, %: (26.4) %
  Responder (10-point reduction in CAPS-5 Total Severity Score), %: (77.4) %
[5]; [9]
  CAPS-5 Total Severity Score, Mean: 15.8
  CAPS-5 Total Severity Score, Median: 15.5
  Loss of Diagnosis, %: (71.2) %
  Non-Responder, %: (13.5) %
  Remission, %: (46.2) %
  Responder (10-point reduction in CAPS-5 Total Severity Score), %: (86.5) %
[5]; MAPP2, MMRM, de jure estimand, mITT
  change from Baseline to Visit 19 in CAPS-5 total severity scores: −23.69
[5]; MAPP2, Visit 19
  no longer met PTSD diagnostic criteria: 71.2%
  remission (CAPS-5 ≤11 and no longer meeting PTSD diagnostic criteria): 46.2%
  responders (10-point reduction in CAPS-5 total severity score): 86.5%
[6]
  inhibition of OCT2: inhibits
[7]
  inhibition of OAT1: not an inhibitor
